Measurements reported in the SangsterLogP compilation.

Experiments:
[1] = not given; remark: listed apart in the source
[2] = not given; remark: listed apart in the source
[3] = not given; remark: listed apart in the source
[4] = method code SF-AS, from DOI: 10.1023/a:1021720128725
[5] = not given; remark: listed apart in the source
[6] = method code SF-HPLC, from DOI: 10.1021/js980008v, PMID: 9758683
[7] = method code SF-GLC, from DOI: 10.1080/00032718608066246; conditions: pH 7.0
[8] = method code SF-AS, from DOI: 10.2307/3574491, PMID: 940937; conditions: pH 7.4
[9] = not given; remark: listed apart in the source
[10] = not given; remark: listed apart in the source
[11] = not given; remark: listed apart in the source
[12] = not given; remark: listed apart in the source
[13] = method code SF-RC,AS, from DOI: 10.1016/s0022-3565(25)22658-1, PMID: 3367302; conditions: pH 7.4
[14] = pH 2.0
[15] = method code SF-RC, from DOI: 10.1007/bf01870888, PMID: 7057454
[16] = not given; remark: listed apart in the source
[17] = not given; remark: listed apart in the source

## Nc1cccc(N)c1
other
  logP: 0

## Nc1c(Cl)cc(Cl)cc1Cl
[1]
  logP: 3.42

## Cc1c(C)c2c(c(C)c1O)CCC(C)(COc1ccc(CC3SC(=O)NC3=O)cc1)O2 (centres undefined)
[2]
  logP: 2.7

## Cc1ccc(C(=N)c2ccc(C)cc2)cc1
[3]
  logP: 3.71

## COc1ccc(-c2cn3c(=O)c4ncn(COCCO)c4nc3[nH]2)cc1
[4]
  logP: 0.39

## Nc1nc2c(nc(Br)n2COCCO)c(=O)[nH]1
[4]
  logP: -0.26

## Cc1c(F)c(F)c(COC(=O)[C@H]2[C@@H](/C=C(\Cl)C(F)(F)F)C2(C)C)c(F)c1F
[5]
  logP: 6.5

## CCC(=O)OCN1C(=O)NC(c2ccccc2)(c2ccccc2)C1=O
[6]
  logP: 3.34

## Cc1ccccc1C(=N)c1ccccc1
[3]
  logP: 3.21

## Cc1ccc(C(=O)O)c(C2=NC(C)(C(C)C)C(=O)N2)c1 (centres undefined)
[5]
  logP: 1.54

## c1ccc2nc3ccccc3cc2c1
[7]
  logD: 3.32

## CCOC(=O)Cn1c(CC)cnc1[N+](=O)[O-]
[8]
  logD: 0

## CCNC(=O)[C@@H](C)OC(=O)Nc1ccccc1
[9]
  logP: 1

## COP(=S)(CN1C(=O)c2ccccc2C1=O)OC
other
  logP: 2.83

## COCC(O)Cn1c([N+](=O)[O-])cnc1C (centres undefined)
[8]
  logD: 0.04

## O=C(O)c1ccc(O)cc1O
[10]
  logP: 1.41

## CCOP(=S)(OCC)SCSP(=S)(OCC)OCC
[5]
  logP: 4

## CC(=O)OCCOC(C)=O
other
  logP: 0.1

## O=[N+]([O-])c1nccn1CCO
[8]
  logD: -0.51

## Cc1cccc(C)c1C(=N)c1ccccc1
[3]
  logP: 3.53

## Nc1c(Cl)c(Cl)nc(C(=O)O)c1Cl
[9]
  logP: 1

## Cn1c(C=O)cnc1[N+](=O)[O-]
[8]
  logD: -0.1

## CCCCCC
[11]
  logP: 3.9

## CO[C@H]1CCC[C@H]2C1=C(C(=O)OC(C)OC(=O)OC1CCCCC1)N1C(=O)[C@H]([C@@H](C)O)[C@@H]21 (some centres undefined)
[2]
  logP: 3

## CCCC(C)C1(CC)C(=O)NC(=S)NC1=O (centres undefined)
[12]
  logP: 2.54

## [N-]=[N+]=N[C@H]1C[C@H](n2ccc(=O)[nH]c2=O)O[C@@H]1CO
[13]
  logD: -0.37

## CC(C)(C(=O)O)C(=O)O
other
  logP: 0.26

## C/C=C/C=C/C(=O)O
[14]
  logD: 1.64

## CCN(CC)CCO
other
  logP: 0.31

## Cc1cnc([N+](=O)[O-])n1CCO
[8]
  logD: 0.18

## CN(C)C(=O)Nc1ccc(Oc2ccc(Cl)cc2)cc1
[9]
  logP: 3.7

## NC(N)=O
[15]
  logP: -1.54

## COc1ccc(/C=C/[N+](=O)[O-])cc1
[16]
  logP: 2.2

## CC(C)(C)c1cccc(C(C)(C)C)c1O
[17]
  logP: 4.92
